According to patent publication US20220257774A1, “AROMATIC AMINE AR AHD BET TARGETING PROTEIN DEGRADATION CHIMERA COMPOUND AND USE” (HINOVA PHARMACEUTICALS INC., priority 2019, published 2022):
Like-named read-outs stand apart in the source and are kept apart here.

Key:
22RV1 cells = assay: Inhibition of the proliferation of drug-resistant prostate cancer cell 22RV1 (CCK-8); assay type: cell-based; conditions: 22RV1 cells (enzalutamide-resistant), same method
Procedure: (1) Experimental materials and instruments: LNCaP/AR cell line and 22RV1 cell line (provided by Sichuan Kangcheng Biotechnology Co., Ltd.) Fetal bovine serum FBS (Gibco, Cat. No. 10099-141) 0.01M PBS (Biosharp, Cat. No. 162262) RIPM1640 medium (Hyclone, Cat. No. 308090.01) Penicillin-Streptomycin (Hyclone, Cat. No. SV30010) Cell counting kit-8 (Signalway Antibody, Cat. No. CP002) DMSO (Sigma, Cat. No. D5879) Centrifuge Tube, 15 ml (Excell Bio, Cat. No. CS015-0001) Cell Culture Dish, (Excell Bio, Cat. No. CS016-0128) 96-well cell culture plate (Corning, Cat. No. 3599) Microplate reader (Thermo Multiskan MK3 type)
a. Preparation of Buffer Cell culture medium: RIPM1640 medium, 10% FBS, 1% Pen Strep: PBS buffer: PBS powder was dissolved in 2 L of ultrapure water and sterilized. b. Experimental Procedures 1) LNCaP/AR cells were subcultured in cell culture media, and then the cells in good growth condition were seeded in a 96-well plate at 80 μL/well (1000 cells/well), and cultured overnight in a 37° C., 5% CO2 cell incubator. 2) The drug was prepared into a 10 mM stock solution with dimethyl sulfoxide (DMSO). Prior to use, the stock solution was diluted in a ratio of […] with DMSO, and then diluted at a 3-fold gradient to obtain 9 serial concentrations. Then, each concentration of compound was further diluted in a ratio of 1:200 with the culture medium (to ensure that the DMSO concentration in the culture system was 0.1%), and two wells were set for each concentration. 20 μL of the diluted compound solution was added to the well of the cell culture (with a final concentration of 10 μM, 3.3 μM, 1.1 μM . . . ), and then the plate was gently tapped to thoroughly mix. In addition, the experiment included 3 negative control wells only containing cells and 3 blank control wells only containing culture medium (6 wells were each added with DMSO diluted in a ratio of 1:200 with 20 μL of culture medium). c. Result Detection: 1) After culturing for 6 days, 10 μL of CCK-8 was added to each well, and the plate was further incubated for 1 h in a 37° C., 5% CO2 cell incubator. 2) The absorbance (OD value) was measured at 450 nm with a multifunctional microplate reader. 3) The data was analyzed by the Dose-response-inhibition equation in the software GraphPad Prism5, and the IC50 value was obtained. 2. Biological assay of the inhibition on the proliferation of other drug-resistant prostate cancer cells
The same test method was used to determine the inhibitory activity of the compound according to the present invention against drug-resistant prostate cancer cell 22RV1.

LNCaP/AR cells = assay: Inhibition of the proliferation of LNCap/AR cells (CCK-8); assay type: cell-based; conditions: read-out: LNCap/AR IC50
Summary of the method: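 Proliferation was read by CCK-8 (OD 450 nm, 1 h) after six days of compound exposure. Cells were seeded at 1000 per well overnight, then dosed in duplicate over nine 3-fold steps with a top final concentration of 10 μM in 0.1% DMSO; IC50 was fitted from inhibition curves.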

[1] = LNCaP/AR cells, 6 days culture, CCK-8
[2] = 144 h, LNCaP/AR cells, 6 days culture, CCK-8

IC50 (22RV1 cells) | IC50 (LNCaP/AR cells; [1]) | IC50 (22RV1 cells; Homo sapiens) | IC50 (LNCaP/AR cells; [2]) | Compound | IC50 (LNCaP/AR cells; LNCaP/AR, 144 h)
– | – | > 2000 nM | > 2000 nM | Cc1ccc(-c2c(C)noc2C)cc1N(CC(C)O[C@@H]1CCN(c2ccc3c(c2)C(=O)N(C2CCC(=O)NC2=O)C3=O)C1)c1ccc(C2(C#N)CC2)cc1 (stereo partly drawn) [Compound 102, 1-(4-((5-(3,5-Dimethylisoxazol-4-yl)-2-methylphenyl)(2-(((3R)-1-(2-(2,6-dioxopiperidin-3-yl)-1,3-dioxoisoindolin-5-yl)pyrrolidin-3-yl)oxy)propyl)amino)phenyl)cyclopropanecarbonitrile] | –
101 to 500 nM | 501 to 2000 nM | – | – | Cc1ccc(-c2c(C)noc2C)cc1N(CC1CCC(COc2ccc3c(c2)C(=O)N(C2CCC(=O)NC2=O)C3=O)CC1)c1ccc(C#N)c(Cl)c1 (stereo not shown) [Compound 104, 2-Chloro-4-((5-(3,5-dimethylisoxazol-4-yl)-2-methylphenyl)((1r,4r)-4-((2-(2,6-dioxopiperidin-3-yl)-1,3-dioxoisoindolin-5-yl)oxy)methyl)cyclohexyl)methyl)amino)benzonitrile] | –
– | – | 501 to 2000 nM | > 2000 nM | Cc1ccc(-c2c(C)noc2C)cc1N(CCCCOc1ccc2c(c1)C(=O)N(C1CCC(=O)NC1=O)C2=O)c1ccc(C2(C#N)CC2)cc1 (stereo not shown) [Compound 108, 1-(4-((5-(3,5-Dimethylisoxazol-4-yl)-2-methylphenyl)(4-((2-(2,6-dioxopiperidin-3-yl)-1,3-dioxoisoindolin-5-yl)oxy)butyl)amino)phenyl)cyclopropanecarbonitrile] | –
501 to 2000 nM | 101 to 500 nM | – | – | Cc1ccc(-c2c(C)noc2C)cc1N(CC1CCC(Nc2cc3c(cc2F)C(=O)N(C2CCC(=O)NC2=O)C3)CC1)c1ccc(C2(C#N)CC2)cc1 (stereo not shown) [Compound 115, 1-(4-((5-(3,5-Dimethylisoxazol-4-yl)-2-methylphenyl)((((1r,4r)-4-((2-(2,6-dioxopiperidin-3-yl)-6-fluoro-1-oxoisoindolin-5-yl)amino)cyclohexyl)methyl)amino)phenyl)cyclopropanecarbonitrile] | –
– | – | > 2000 nM | > 2000 nM | Cc1ccc(-c2c(C)noc2C)cc1N(CC1CN(C2CCN(c3ccc4c(c3)CN(C3CCC(=O)NC3=O)C4=O)CC2)C1)c1ccc(C2(C#N)CC2)cc1 (stereo not shown) [Compound 76, 1-(4-((5-(3,5-dimethylisoxazol-4-yl)-2-methylphenyl)((1-(1-(2-(2,6-dioxopiperidin-3-yl)-1-oxoisoindolin-5-yl)piperidinyl-4-yl)azetidin-3-yl)methyl)amino)phenyl)cyclopropane-1-carbonitrile] | –
– | – | < 100 nM | 501 to 2000 nM | Cc1ccc(-c2c(C)noc2C)cc1N(CCC(C)CCNc1ccc2c(c1)C(=O)N(C1CCC(=O)NC1=O)C2=O)c1ccc(C2(C#N)CC2)cc1 (stereo not shown) [Compound 192, 1-(4-((5-(3,5-dimethylisoxazol-4-yl)-2-methylphenyl)(5-((2-(2,6-dioxopiperidin-3-yl)-1,3-dioxoisoindolin-5-yl)amino)-3-methylpentanyl)amino)phenyl)cyclopropane-1-carbonitrile] | –
– | – | < 100 nM | < 100 nM | Cc1ccc(-c2c(C)noc2C)cc1N(CCCCNc1ccc2c(c1)CN(C1CCC(=O)NC1=O)C2=O)c1ccc(C2(C#N)CC2)cc1 (stereo not shown) [Compound 62, 1-(4-((5-(3,5-dimethylisoxazol-4-yl)-2-methylphenyl)(4-((2-(2,6-dioxopiperidin-3-yl)-1-oxoisoindolin-5-yl)amino)butyl)amino)phenyl)cyclopropane-1-nitrile] | –
– | – | > 2000 nM | > 2000 nM | Cc1ccc(-c2c(C)noc2C)cc1N(CC1CCN(c2cc3c(cc2F)C(=O)N(C2CCC(=O)NC2=O)C3=O)C1)c1ccc(C2(C#N)CC2)cc1 (stereo not shown) [Compound 107] | –
– | – | > 2000 nM | 101 to 500 nM | Cc1ccc(-c2c(C)noc2C)cc1N(CC1(COC2CN(c3cc4c(cc3F)C(=O)N(C3CCC(=O)NC3=O)C4=O)C2)CC1)c1ccc(C2(C#N)CC2)cc1 (stereo not shown) [Compound 138, 1-(4-((5-(3,5-dimethylisoxazol-4-yl)-2-methylphenyl)((1-(((1-(2-(2,6-dioxopiperidin-3-yl)-6-fluoro-1,3-dioxoisoindolin-5-yl)azetidin-3-yl)oxy)methyl)cyclopropyl)methyl)amino)phenyl)cyclopropane-1-nitrile] | –
– | – | > 2000 nM | > 2000 nM | Cc1ccc(-c2c(C)noc2C)cc1N(CC(C)O[C@H]1CCN(c2ccc3c(c2)C(=O)N(C2CCC(=O)NC2=O)C3=O)C1)c1ccc(C2(C#N)CC2)cc1 (stereo partly drawn) [Compound 103, 1-(4-((5-(3,5-Dimethylisoxazol-4-yl)-2-methylphenyl)(2-(((3S)-1-(2-(2,6-dioxopiperidin-3-yl)-1,3-dioxoisoindolin-5-yl)pyrrolidin-3-yl)oxy)propyl)amino)phenyl)cyclopropanecarbonitrile] | –
> 2000 nM | > 2000 nM | – | – | Cc1ccc(-c2c(C)noc2C)cc1N(c1ccc(C2(C#N)CC2)cc1)C1CN(C2CCC(Nc3cc4c(cc3F)C(=O)N(C3CCC(=O)NC3=O)C4=O)CC2)C1 (stereo not shown) [Compound 73, 1-(4-((5-(3,5-dimethylisoxazol-4-yl)-2-methylphenyl)(1-((1s,4s)-4-((2-(2,6-dioxopiperidin-3-yl)-6-fluoro-1,3-dioxoisoindolin-5-yl)amino)cyclohexyl)azetidin-3-yl)amino)phenyl)cyclopropane-1-nitrile] | –

Compound | IC50 (22RV1 cells) | IC50 (LNCaP/AR cells; [1]) | IC50 (22RV1 cells; Homo sapiens) | IC50 (LNCaP/AR cells; [2]) | IC50 (LNCaP/AR cells; LNCaP/AR, 144 h)
Cc1ccc(-c2c(C)n[nH]c2C)cc1N(CCCCCOCC(=O)N[C@H](C(=O)N1C[C@H](O)C[C@H]1C(=O)N[C@@H](C)c1ccc(-c2scnc2C)cc1)C(C)(C)C)c1ccc(C#N)c(Cl)c1 [Compound 79, (2S,4R)-1-((S)-2-(2-((5-((3-chloro-4-cyanophenyl)(5-(3,5-dimethyl-1H-pyrazol-4-yl)-2-methylphenyl)amino)pentyl)oxy)acetylamino)-3,3-dimethylbutyryl)-4-hydroxy-N—((S)-1-(4-(4-methylthiazol-5-yl)phenyl)ethyl)pyrrolidinyl-2-formamide] | > 2000 nM | 101 to 500 nM | – | – | –
Cc1ccc(-c2c(C)noc2C)cc1N(CC1CCC(CNc2ccc3c(c2)C(=O)N(C2CCC(=O)NC2=O)C3)CC1)c1ccc(C#N)c(Cl)c1 (stereo not shown) [Compound 134, 2-Chloro-4-((5-(3,5-dimethylisoxazol-4-yl)-2-methylphenyl)((1r,4r)-4-((2-(2,6-dioxopiperidin-3-yl)-3-oxoisoindolin-5-yl)amino)methyl)cyclohexyl)methyl)amino)benzonitrile] | – | – | < 100 nM | – | 101 to 500 nM
Cc1ccc(-c2c(C)noc2C)cc1N(CCCCNc1cc2c(cc1F)C(=O)N(C1CCC(=O)NC1=O)C2=O)c1ccc(C#N)c(Cl)c1 (stereo not shown) [Compound 164, 2-Chloro-4-((5-(3,5-dimethylisoxazol-4-yl)-2-methylphenyl)(4-((2-(2,6-dioxopiperidin-3)-6-fluoro-1,3-dioxyisoindolin-5-yl)amino)butyl)amino)benzonitrile] | – | – | > 2000 nM | – | 501 to 2000 nM
CC(=O)O[C@@H]1C[C@@H](C(=O)N[C@@H](C)c2ccc(-c3scnc3C)cc2)N(C(=O)[C@@H](NC(=O)COCCCCCN(c2ccc(C#N)c(Cl)c2)c2cc(-c3c(C)n[nH]c3C)ccc2C)C(C)(C)C)C1 [Compound 45] | – | – | > 2000 nM | – | 501 to 2000 nM
Cc1ccc(-c2c(C)noc2C)cc1N(C[C@H]1CC[C@H](CNc2ccc3c(c2)C(=O)N(C2CCC(=O)NC2=O)C3=O)CC1)c1ccc(C#N)c(Cl)c1 (stereo partly shown) [Compound 132, 2-Chloro-4-((5-(3,5-dimethylisoxazol-4-yl)-2-methylphenyl)(((1r,4r)-4-(((2-(2,6-dioxopiperidin-3-yl)-1,3-dioxoisoindolin-5-yl)amino)methyl)cyclohexyl)methyl)amino)benzonitrile] | – | – | 101 to 500 nM | – | > 2000 nM
Cc1ccc(-c2c(C)noc2C)cc1N(CC1CN(C2CCN(c3ccc4c(c3)C(=O)N(C3CCC(=O)NC3=O)C4=O)CC2)C1)c1ccc(C2(C#N)CC2)cc1 (stereo not shown) [Compound 152] | – | – | 501 to 2000 nM | – | > 2000 nM
